# Active and inactive are the calls of the source. No cut-off for these calls is given here.
# What was measured:
# [1] = target: T1, Leukotriene A-4 hydrolase (Homo sapiens) (UniProt P09960)
# T1 sequence (whole entry): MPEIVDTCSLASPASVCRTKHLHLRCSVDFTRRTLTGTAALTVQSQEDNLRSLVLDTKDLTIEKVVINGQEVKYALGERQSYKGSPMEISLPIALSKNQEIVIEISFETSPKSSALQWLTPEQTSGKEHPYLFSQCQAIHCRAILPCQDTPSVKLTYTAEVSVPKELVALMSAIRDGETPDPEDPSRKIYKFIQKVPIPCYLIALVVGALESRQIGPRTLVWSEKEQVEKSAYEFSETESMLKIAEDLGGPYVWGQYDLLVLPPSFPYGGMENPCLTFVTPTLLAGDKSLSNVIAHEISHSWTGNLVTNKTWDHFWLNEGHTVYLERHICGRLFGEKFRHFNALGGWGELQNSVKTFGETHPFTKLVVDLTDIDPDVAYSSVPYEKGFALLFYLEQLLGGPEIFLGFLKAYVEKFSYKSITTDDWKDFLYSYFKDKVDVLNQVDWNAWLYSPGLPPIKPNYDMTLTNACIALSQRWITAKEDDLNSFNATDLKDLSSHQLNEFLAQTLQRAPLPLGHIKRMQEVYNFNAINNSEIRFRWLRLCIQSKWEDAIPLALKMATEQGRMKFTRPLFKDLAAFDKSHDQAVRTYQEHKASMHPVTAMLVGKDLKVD
# Description: Binding affinity to recombinant human LTA4H hydrolase assessed as change in melting temperature at 50 uM by SYPRO orange dye-based thermofluor assay
# [2] = target: T2, Leukotriene A-4 hydrolase (LTA4H) aminopeptidase activity (Homo sapiens, UniProt P09960); assay: Inhibition of recombinant human LTA4H aminopeptidase activity expressed in Escherichia coli BL21 (DE3) pLysS assessed as formation of p-NA from Ala-p-NA at 10 uM preincubated for 10 mins followed by substrate addition measured after 10 mins
# T2 sequence (P09960 whole entry): T1 sequence (whole entry)
# [3] = target: T3, Leukotriene A-4 hydrolase (Homo sapiens, UniProt P09960); assay: Inhibition of recombinant human LTA4H aminopeptidase activity expressed in Escherichia coli BL21 (DE3) pLysS assessed as formation of p-NA from Ala-p-NA preincubated for 10 mins followed by substrate addition measured after 10 mins; assay type: ADME
# T3 sequence (P09960 whole entry): T1 sequence (whole entry)
# [4] = target: T3, Leukotriene A-4 hydrolase; assay: Inhibition of recombinant human LTA4H Epoxide Hydrolase expressed in Escherichia coli BL21 (DE3) pLysS preincubated for 10 mins followed by addition of LTA4 as substrate measured after 15 mins by reverse-phase HPLC analysis
# [5] = target: T1, Leukotriene A-4 hydrolase (Homo sapiens); conditions: at 10 µM
# Description: Inhibition of recombinant human LTA4H Epoxide Hydrolase expressed in Escherichia coli BL21 (DE3) pLysS at 10 uM preincubated for 10 mins followed by addition of LTA4 as substrate measured after 15 mins by reverse-phase HPLC analysis
# [6] = tested on: Mus musculus; assay: Anti-inflammatory activity in LPS-induced C57BL/6 mouse model of acute lung injury assessed as reduction in pathological changes at 25 mg/kg, ip and co-treated with ((2S,3R)-3-amino-2-hydroxy-4-phenylbutanamido)-4-methylpentanoic acid pretreated for 1 hr followed LPS challenge measured after 24 hrs by hematoxylin and eosin staining based microscopy; assay type: functional, organism-based
# [7] = species on record: Mus musculus; conditions: C57BL/6, at 25 mg/kg
# Description: Inhibition of LTB4 biosynthesis in LPS-induced C57BL/6 mouse model of acute lung injury BLAF at 25 mg/kg, ip by ELISA
# [8] = target: T1, Leukotriene A-4 hydrolase (Homo sapiens); conditions: 10 uM
# [9] = tested on: Mus musculus; assay: Anti-inflammatory activity in BLM-induced C57BL/6 mouse model of acute lung neutrophilic inflammation assessed as reduction in number of neutrophils in BALF at 30 mg/kg, ip qd for 7 days post BLM challenge measured on day 7; assay type: functional, organism-based
Compound,ΔTm [1] [°C],"inhibition at 10 min, 10 µM [2] [%]",IC50 [3] [µM],IC50 [4] [µM],inhibition [5] [%],Activity [6],inhibition [7],ΔTm [8] [°C],Activity [9],"inhibition at 10 min, 10 µM ([2]; probe Ala-p-NA) [%]"
O=C(CCCCCN1C(=O)c2cccc3cccc(c23)C1=O)NO,-0.68,> 50,4.4,> 10,> 50,,,,,
CC(C)C[C@H](NC(=O)[C@@H](O)[C@H](N)Cc1ccccc1)C(=O)O,,,,,,Active,Active,,,
CN(CCCOc1ccc(Cc2ccccc2)cc1)CCC(=O)O,,,,,,,,2.95,,
COC(=O)c1ccc2c(c1)NC(=O)/C2=C(\Nc1ccc(N(C)C(=O)CN2CCN(C)CC2)cc1)c1ccccc1,,,,,,,,,Active,
CN(C)Cc1c(C(=O)NCCOc2ccc(C(=O)NO)cc2)oc2ccccc12 [ABEXINOSTAT],0.24,,> 10,> 10,> 50,,,,,> 50
O=C(/C=C/c1cccc(S(=O)(=O)Nc2ccccc2)c1)NO [BELINOSTAT],0.11,,> 10,> 10,> 50,,,,,> 50
C#Cc1cccc(Nc2ncnc3cc(OC)c(OCCCCCCC(=O)NO)cc23)c1 [CUDC-101],0.3,> 50,> 10,> 10,> 50,,,,,
Nc1ccccc1NC(=O)c1ccc(CNC(=O)OCc2cccnc2)cc1 [ENTINOSTAT],0.39,,> 10,> 10,> 50,,,,,> 50
CCN(CC)Cc1ccc2cc(COC(=O)Nc3ccc(C(=O)NO)cc3)ccc2c1 [GIVINOSTAT],0.19,,> 10,> 10,> 50,,,,,> 50
Nc1ccccc1NC(=O)c1ccc(CNc2nccc(-c3cccnc3)n2)cc1 [MOCETINOSTAT],-0.33,,> 10,> 10,> 50,,,,,> 50
Cc1[nH]c2ccccc2c1CCNCc1ccc(/C=C/C(=O)NO)cc1 [PANOBINOSTAT],0.12,,> 10,> 10,> 50,,,,,> 50
CCCCc1nc2cc(/C=C/C(=O)NO)ccc2n1CCN(CC)CC [PRACINOSTAT],0.31,> 50,> 10,> 10,> 50,,,,,
Cn1cc(CNCC2CCN(c3ncc(C(=O)NO)cn3)CC2)c2ccccc21 [QUISINOSTAT],0.52,,> 10,> 10,> 50,,,,,> 50
CN(C)Cc1ccc(S(=O)(=O)n2ccc(/C=C/C(=O)NO)c2)cc1 [RESMINOSTAT],0.44,,> 10,> 10,> 50,,,,,> 50
O=C(CCCCCCNC(=O)c1cnc(N(c2ccccc2)c2ccccc2)nc1)NO [RICOLINOSTAT],0.55,,> 10,> 10,> 50,,,,,> 50
CC(/C=C/C(=O)NO)=C\[C@@H](C)C(=O)c1ccc(N(C)C)cc1 [TRICHOSTATIN],0.17,,> 10,> 10,> 50,,,,,> 50
O=C(CCCCCCC(=O)Nc1ccc([C@H]2O[C@@H](CSc3nc(-c4ccccc4)c(-c4ccccc4)o3)C[C@@H](c3ccc(CO)cc3)O2)cc1)NO [TUBACIN],0.34,,> 10,> 10,> 50,,,,,> 50
CCCC(CCC)C(=O)O [VALPROATE SODIUM],0.36,,> 10,> 10,> 50,,,,,> 50

# From ChEMBL document CHEMBL4007425, “Drug Repurposing of Histone Deacetylase Inhibitors That Alleviate Neutrophilic Inflammation in Acute Lung Injury and Idiopathic Pulmonary Fibrosis via Inhibiting Leukotriene A4 Hydrolase and Blocking LTB4 Biosynthesis” (J Med Chem, 2017)
